Test results: patent US11945816B2, “Inhibitors of EGFR and/or HER2 and methods of use” (Dana-Farber Cancer Institute, Inc., priority 2017, dated 2024)

What was measured:
Format in all cases: cell-based
[1] = target: T1, EGFR InsH transformed Ba/F3 cells (Homo sapiens, UniProt P00533, DUP773-773); test: Proliferation inhibition assay, EGFR InsH transformed Ba/F3 cells; details: MTS assay, 72 hours
T1 construct: expressed in transfected cells; host or cells: Ba/F3
Procedure: (§1) Cell growth inhibition can be assessed by MTS assay or by Cell Titer Glo Luminescent Cell viability assay (Promega®). Cells are seeded and grow in culture plates before they are exposed to representative compounds of the application for various duration. The viability of the cells are then assessed. […] The growth curves can be fitted using a nonlinear regression model with sigmoidal dose response.
(§2) Cell growth inhibition was assessed by MTS assay for Ba/F3, DFCI58-229, and DFCI127c cells, or by Cell Titer Glo Luminescent Cell viability assay (Promega®) for DFC1362JC cells, 3000 Ba/F3 cells were seeded for per well in 96-well plates, and were exposed to representative compounds of the application (3.3 nM to 10 μM) for 72 hours. For DFCI58-229, DFCI127c, and DFC1362JC cells, 5000 cells were seeded per well. All experimental points included 6 to 12 wells. […] The growth curves were fitted using a nonlinear regression model with sigmoidal dose response.
(§3) Activities of representative compounds of the present application in inhibiting EGFR and HER2 were tested by MTS assay (for Ba/F3 cell, DFCI58-229 cell, and DFCI127c cells) or by CellTiter-Glot luminescent cell viability assay (for DFCI362JC cells). For assays with Ba/F3 cells, 3000 cells were seeded for per well in 96-well plates and were exposed to indicated compounds with a concentration of 3.3 to 10 μM for 72 hours. For assays with DFCI58-229 cell, DFCI127c cell, or DFCI362JC cell, 5000 cells were seeded per well in 96-well plates and were exposed to indicated compounds with a concentration of 3.3 to 10 μM for 72 hours.

[2] = target: T2, HER2 InsVC (G776delinsVC) transformed Ba/F3 cells (Homo sapiens, UniProt P04626, G776C/INS775V); test: Proliferation inhibition assay, HER2 InsVC transformed Ba/F3 cells; details: MTS assay, 72 hours, Table 9 key
T2 construct: expressed in transfected cells; host or cells: Ba/F3
Procedure: as §1, §2, §3

[3] = target: T3, HER2 InsYVMA (A775_G776insYVMA) transformed Ba/F3 cells (Homo sapiens, UniProt P04626, INS775YVMA); test: Proliferation inhibition assay, HER2 InsYVMA transformed Ba/F3 cells; details: MTS assay, 72 hours, Table 9 key
T3 construct: expressed in transfected cells; host or cells: Ba/F3
Procedure: as §1, §2, §3

[4] = target: T4, EGFR InsGY (D770delinsGY) transformed Ba/F3 cells (Homo sapiens, UniProt P00533, D770Y/INS769G); test: Proliferation inhibition assay, EGFR InsGY transformed Ba/F3 cells; details: MTS assay, 72 hours
T4 construct: expressed in transfected cells; host or cells: Ba/F3
Procedure: as §1, §2, §3

[5] = target: T5, mutant EGFR L858R transformed Ba/F3 cells (Homo sapiens, UniProt P00533, L858R); test: Proliferation inhibition assay, EGFR L858R transformed Ba/F3 cells
T5 construct: expressed in transfected cells; host or cells: Ba/F3

[6] = target: T6, EGFR InsSVD transformed Ba/F3 cells (Homo sapiens, UniProt P00533, INS770SVD); test: Western blot, EGFR phosphorylation, EGFR InsSVD Ba/F3 cells; details: indicated concentrations, 6 hours of treatment
T6 construct: expressed in transfected cells; host or cells: Ba/F3
Procedure: (§4) Cells are seeded and grow in culture plates, and then treated with representative compounds of the application the following day for various duration. Cells are washed with PBS and lysed.
(§5) Cells were plated at 5×10^5 cells per well in 6-well plates and treated with representative compounds of the application the following day. After 6 hours of treatment, cells were washed with PBS and lysed with NP40 buffer (Calbiochem®) supplemented with Complete™ Mini protease inhibitor and PhosSTOP™ phosphatase inhibitors (Rocheg).
(§6) Western blot analysis was then performed on the cells. The cells were plated at 5×10^5 cells per well in 6-well plates and treated with the indicated concentrations of the compound.
(§7) After 6 hours of treatment, cells were washed with PBS and lysed with NP40 buffer (Calbiochem) supplemented with Complete Mini protease inhibitor and PhosSTOP phosphatase inhibitors (Roche).

[7] = target: T7, EGFR InsSVD (D770_N771insSVD) transformed Ba/F3 cells (Homo sapiens, UniProt P00533, INS770SVD); test: Proliferation inhibition assay, EGFR InsSVD transformed Ba/F3 cells; details: MTS assay, 72 hours
T7 construct: expressed in transfected cells; host or cells: Ba/F3
Procedure: as §1, §2, §3

[8] = target: T8, HER2 InsGSP (P780_Y781insGSP) transformed Ba/F3 cells (Homo sapiens, UniProt P04626, INS780GSP); test: Proliferation inhibition assay, HER2 InsGSP transformed Ba/F3 cells; details: MTS assay, 72 hours, Table 9 key
T8 construct: expressed in transfected cells; host or cells: Ba/F3
Procedure: as §1, §2, §3

[9] = target: T9, EGFR InsHH (Y764_V765insHH) transformed Ba/F3 cells (Homo sapiens, UniProt P00533, INS764HH); test: Proliferation inhibition assay, EGFR InsHH transformed Ba/F3 cells; details: MTS assay, 72 hours
T9 construct: expressed in transfected cells; host or cells: Ba/F3
Procedure: as §1, §2, §3

[10] = target: T10, EGFR InsGY transformed Ba/F3 cells (Homo sapiens, UniProt P00533, D770Y/INS769G); test: Western blot, EGFR phosphorylation, EGFR InsGY Ba/F3 cells; details: indicated concentrations, 6 hours of treatment
T10 construct: expressed in transfected cells; host or cells: Ba/F3
Procedure: as §4, §5, §6, §7

[11] = target: T11, EGFR InsASV (V769_D770insASV) transformed Ba/F3 cells (Homo sapiens, UniProt P00533, INS769ASV); test: Proliferation inhibition assay, EGFR InsASV transformed Ba/F3 cells; details: MTS assay, 72 hours
T11 construct: expressed in transfected cells; host or cells: Ba/F3
Procedure: as §1, §2, §3

[12] = target: T12, wild-type HER2 transformed Ba/F3 cells (Homo sapiens, UniProt P04626); test: Proliferation inhibition assay, wild-type HER2 transformed Ba/F3 cells; details: MTS assay, 72 hours, Table 9 key
T12 construct: expressed in transfected cells; host or cells: Ba/F3
Procedure: as §1, §2, §3

[13] = target: T13, HER2 InsWLV transformed Ba/F3 cells (Homo sapiens, UniProt P04626, INS773WL/M774V); test: Proliferation inhibition assay, HER2 InsWLV transformed Ba/F3 cells; details: MTS assay, 72 hours, Table 9 key
T13 construct: expressed in transfected cells; host or cells: Ba/F3
Procedure: as §1, §2, §3

[14] = target: mutant EGFR Exon19del transformed Ba/F3 cells (Homo sapiens, UniProt P00533, cells depend on it, form not given); test: Proliferation inhibition assay, EGFR Exon19del transformed Ba/F3 cells
[15] = target: mutant EGFR T790M/exon19del transformed Ba/F3 cells (Homo sapiens, UniProt P00533, T790M, cells depend on it, form not given); test: Proliferation inhibition assay, EGFR T790M/exon19del transformed Ba/F3 cells
[16] = target: T14, mutant EGFR T790M/L858R transformed Ba/F3 cells (Homo sapiens, UniProt P00533, L858R/T790M); test: Proliferation inhibition assay, EGFR T790M/L858R transformed Ba/F3 cells
T14 construct: expressed in transfected cells; host or cells: Ba/F3

[17] = target: T15, EGFR InsNPG (D770_N771insNPG) transformed Ba/F3 cells (Homo sapiens, UniProt P00533, INS770NPG); test: Proliferation inhibition assay, EGFR InsNPG transformed Ba/F3 cells; details: MTS assay, 72 hours
T15 construct: expressed in transfected cells; host or cells: Ba/F3
Procedure: as §1, §2, §3

[18] = target: T16, wild-type EGFR transformed Ba/F3 cells (Homo sapiens, UniProt P00533); test: Western blot, EGFR phosphorylation, wild-type EGFR Ba/F3 cells; details: indicated concentrations, 6 hours of treatment
T16 construct: expressed in transfected cells; host or cells: Ba/F3
Procedure: as §4, §5, §6, §7

[19] = target: T16, wild-type EGFR transformed Ba/F3 cells; test: Proliferation inhibition assay, wild-type EGFR transformed Ba/F3 cells; details: MTS assay, 72 hours
Procedure: as §1, §2, §3

T2 sequence (P04626 with tags, fused parts or gaps INS775V/G776C): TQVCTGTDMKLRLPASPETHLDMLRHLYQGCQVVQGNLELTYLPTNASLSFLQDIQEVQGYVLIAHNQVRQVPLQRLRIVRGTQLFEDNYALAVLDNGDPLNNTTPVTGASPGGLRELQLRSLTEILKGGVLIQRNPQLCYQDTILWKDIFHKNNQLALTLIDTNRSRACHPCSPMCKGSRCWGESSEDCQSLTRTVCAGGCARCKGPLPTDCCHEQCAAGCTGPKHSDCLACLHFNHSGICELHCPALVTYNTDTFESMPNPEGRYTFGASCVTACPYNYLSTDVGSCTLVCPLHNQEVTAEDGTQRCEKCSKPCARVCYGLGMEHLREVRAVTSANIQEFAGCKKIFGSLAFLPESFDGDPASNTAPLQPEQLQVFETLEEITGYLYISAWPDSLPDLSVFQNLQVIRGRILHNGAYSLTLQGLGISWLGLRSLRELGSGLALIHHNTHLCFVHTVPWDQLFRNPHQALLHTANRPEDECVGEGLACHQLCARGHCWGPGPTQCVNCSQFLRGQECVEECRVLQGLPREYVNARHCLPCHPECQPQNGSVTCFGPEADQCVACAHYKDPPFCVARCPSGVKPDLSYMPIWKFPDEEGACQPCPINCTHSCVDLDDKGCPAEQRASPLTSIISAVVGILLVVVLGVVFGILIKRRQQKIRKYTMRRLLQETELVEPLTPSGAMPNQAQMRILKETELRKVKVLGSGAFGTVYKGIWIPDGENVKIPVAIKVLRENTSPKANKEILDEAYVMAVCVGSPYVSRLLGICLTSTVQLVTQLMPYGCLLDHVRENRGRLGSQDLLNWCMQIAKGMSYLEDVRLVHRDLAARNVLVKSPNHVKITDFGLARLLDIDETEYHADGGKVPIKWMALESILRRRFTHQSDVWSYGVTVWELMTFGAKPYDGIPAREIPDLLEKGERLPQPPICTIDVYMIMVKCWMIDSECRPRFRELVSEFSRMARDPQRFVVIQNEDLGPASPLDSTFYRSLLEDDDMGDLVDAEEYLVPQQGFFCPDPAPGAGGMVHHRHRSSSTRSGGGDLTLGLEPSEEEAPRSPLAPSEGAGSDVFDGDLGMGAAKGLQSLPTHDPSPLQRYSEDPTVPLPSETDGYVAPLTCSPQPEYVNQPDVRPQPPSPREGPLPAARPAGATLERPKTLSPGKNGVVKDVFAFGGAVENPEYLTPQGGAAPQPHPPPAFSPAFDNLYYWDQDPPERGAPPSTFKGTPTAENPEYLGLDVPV
T13 sequence (P04626 with tags, fused parts or gaps INS773WL/M774V): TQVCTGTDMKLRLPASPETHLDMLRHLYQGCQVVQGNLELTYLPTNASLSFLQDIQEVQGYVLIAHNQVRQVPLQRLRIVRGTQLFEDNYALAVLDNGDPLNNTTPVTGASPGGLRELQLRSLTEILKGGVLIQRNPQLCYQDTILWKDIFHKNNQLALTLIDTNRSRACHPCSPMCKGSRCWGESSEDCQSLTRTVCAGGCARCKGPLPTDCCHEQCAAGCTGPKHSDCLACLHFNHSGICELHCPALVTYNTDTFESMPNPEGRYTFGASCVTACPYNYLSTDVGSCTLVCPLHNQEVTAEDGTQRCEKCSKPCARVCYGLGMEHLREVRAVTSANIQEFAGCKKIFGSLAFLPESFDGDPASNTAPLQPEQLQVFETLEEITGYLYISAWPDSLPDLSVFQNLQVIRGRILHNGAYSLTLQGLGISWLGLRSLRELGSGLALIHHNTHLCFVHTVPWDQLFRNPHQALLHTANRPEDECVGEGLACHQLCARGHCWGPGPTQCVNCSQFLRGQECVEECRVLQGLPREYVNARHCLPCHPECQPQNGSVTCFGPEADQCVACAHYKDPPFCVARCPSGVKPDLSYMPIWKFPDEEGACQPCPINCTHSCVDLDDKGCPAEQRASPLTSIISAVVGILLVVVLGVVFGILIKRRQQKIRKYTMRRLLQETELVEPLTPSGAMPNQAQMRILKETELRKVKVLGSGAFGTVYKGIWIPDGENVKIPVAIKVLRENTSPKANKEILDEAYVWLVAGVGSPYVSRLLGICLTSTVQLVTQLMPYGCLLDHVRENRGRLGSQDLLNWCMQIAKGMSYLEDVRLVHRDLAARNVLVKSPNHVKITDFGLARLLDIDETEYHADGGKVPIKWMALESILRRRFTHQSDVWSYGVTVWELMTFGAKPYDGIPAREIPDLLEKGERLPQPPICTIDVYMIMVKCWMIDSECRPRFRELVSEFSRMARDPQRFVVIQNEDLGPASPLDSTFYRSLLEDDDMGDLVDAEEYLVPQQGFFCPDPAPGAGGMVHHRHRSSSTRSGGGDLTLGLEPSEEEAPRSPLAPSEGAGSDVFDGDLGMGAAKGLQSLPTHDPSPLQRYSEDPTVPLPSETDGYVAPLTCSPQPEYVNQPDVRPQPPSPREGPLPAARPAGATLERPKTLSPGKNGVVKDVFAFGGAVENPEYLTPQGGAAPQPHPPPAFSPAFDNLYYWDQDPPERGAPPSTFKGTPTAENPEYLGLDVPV
T3 sequence (P04626 with tags, fused parts or gaps INS775YVMA): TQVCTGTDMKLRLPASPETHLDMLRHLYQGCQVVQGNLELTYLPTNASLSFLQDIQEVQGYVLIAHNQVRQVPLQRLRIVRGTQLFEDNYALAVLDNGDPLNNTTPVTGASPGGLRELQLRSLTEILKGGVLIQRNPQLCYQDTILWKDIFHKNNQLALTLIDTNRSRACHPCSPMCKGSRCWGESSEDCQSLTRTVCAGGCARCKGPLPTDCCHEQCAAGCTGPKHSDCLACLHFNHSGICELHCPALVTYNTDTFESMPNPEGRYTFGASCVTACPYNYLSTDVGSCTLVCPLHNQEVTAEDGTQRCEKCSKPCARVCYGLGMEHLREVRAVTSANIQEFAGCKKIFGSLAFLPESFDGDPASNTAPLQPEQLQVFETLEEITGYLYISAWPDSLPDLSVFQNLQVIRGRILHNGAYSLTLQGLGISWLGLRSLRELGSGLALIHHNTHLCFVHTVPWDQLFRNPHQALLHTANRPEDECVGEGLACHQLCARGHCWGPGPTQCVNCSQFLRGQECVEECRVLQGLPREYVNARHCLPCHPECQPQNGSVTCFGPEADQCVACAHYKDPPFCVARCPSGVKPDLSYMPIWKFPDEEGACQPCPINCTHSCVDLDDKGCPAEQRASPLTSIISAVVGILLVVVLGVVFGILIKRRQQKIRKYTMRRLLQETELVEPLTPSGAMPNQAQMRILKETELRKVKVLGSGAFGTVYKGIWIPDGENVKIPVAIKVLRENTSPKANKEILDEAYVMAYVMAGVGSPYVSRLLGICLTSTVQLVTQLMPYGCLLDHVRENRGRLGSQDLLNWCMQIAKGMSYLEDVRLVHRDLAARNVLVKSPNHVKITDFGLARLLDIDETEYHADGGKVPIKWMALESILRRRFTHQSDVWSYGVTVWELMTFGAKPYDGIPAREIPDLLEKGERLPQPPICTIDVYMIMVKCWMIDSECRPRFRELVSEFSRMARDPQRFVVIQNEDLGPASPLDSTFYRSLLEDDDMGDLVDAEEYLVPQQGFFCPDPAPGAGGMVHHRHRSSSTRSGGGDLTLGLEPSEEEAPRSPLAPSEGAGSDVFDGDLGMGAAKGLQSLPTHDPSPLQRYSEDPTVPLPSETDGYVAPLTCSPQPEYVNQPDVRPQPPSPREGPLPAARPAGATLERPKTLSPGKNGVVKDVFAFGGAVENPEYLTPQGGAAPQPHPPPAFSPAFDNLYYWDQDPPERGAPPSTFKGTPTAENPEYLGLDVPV
T8 sequence (P04626 with tags, fused parts or gaps INS780GSP): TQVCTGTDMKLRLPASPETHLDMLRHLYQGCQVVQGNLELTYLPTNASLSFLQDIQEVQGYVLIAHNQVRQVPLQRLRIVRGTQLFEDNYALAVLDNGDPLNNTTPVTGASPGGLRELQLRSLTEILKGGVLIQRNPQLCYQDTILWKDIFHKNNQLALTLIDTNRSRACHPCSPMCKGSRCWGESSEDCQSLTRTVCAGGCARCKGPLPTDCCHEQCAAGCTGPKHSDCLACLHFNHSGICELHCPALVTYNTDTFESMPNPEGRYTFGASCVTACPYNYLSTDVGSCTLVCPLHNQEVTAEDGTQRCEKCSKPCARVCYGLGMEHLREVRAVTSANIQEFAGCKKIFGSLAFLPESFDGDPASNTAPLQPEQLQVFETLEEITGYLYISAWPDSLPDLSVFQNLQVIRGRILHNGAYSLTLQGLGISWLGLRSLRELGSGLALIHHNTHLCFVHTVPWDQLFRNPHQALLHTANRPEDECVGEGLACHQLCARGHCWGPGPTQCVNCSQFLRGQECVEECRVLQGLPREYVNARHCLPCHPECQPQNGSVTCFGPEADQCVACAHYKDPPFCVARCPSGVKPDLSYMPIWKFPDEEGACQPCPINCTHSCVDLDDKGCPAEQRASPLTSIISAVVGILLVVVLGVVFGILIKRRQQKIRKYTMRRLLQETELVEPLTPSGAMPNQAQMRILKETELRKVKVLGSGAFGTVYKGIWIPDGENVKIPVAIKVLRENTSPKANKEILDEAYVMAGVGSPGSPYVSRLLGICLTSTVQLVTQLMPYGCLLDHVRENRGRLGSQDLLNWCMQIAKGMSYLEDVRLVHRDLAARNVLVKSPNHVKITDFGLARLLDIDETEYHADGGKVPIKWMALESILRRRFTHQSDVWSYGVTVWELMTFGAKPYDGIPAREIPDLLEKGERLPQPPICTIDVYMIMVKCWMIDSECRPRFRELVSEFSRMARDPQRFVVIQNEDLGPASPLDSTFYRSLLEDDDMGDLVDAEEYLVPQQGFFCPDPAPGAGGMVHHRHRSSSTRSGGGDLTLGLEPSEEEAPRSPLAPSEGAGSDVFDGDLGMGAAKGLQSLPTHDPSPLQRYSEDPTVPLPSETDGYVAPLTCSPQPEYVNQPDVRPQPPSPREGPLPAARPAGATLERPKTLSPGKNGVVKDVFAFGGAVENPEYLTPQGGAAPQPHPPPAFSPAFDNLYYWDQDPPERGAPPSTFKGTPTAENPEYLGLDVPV

- EC50 [1]: < 0.2 µM
- EC50 [2]: < 0.1 µM
- EC50 [3]: < 0.1 µM
- EC50 [4]: < 0.2 µM
- EC50 [5]: < 0.1 µM
- EGFR phosphorylation (Western blot, FIG. 1) [6]: decrease in EGFR phosphorylation
- EC50 [7]: < 0.2 µM
- EC50 [8]: < 0.1 µM
- EC50 [9]: < 0.2 µM
- EGFR phosphorylation (Western blot, FIG. 1) [10]: decrease in EGFR phosphorylation
- EC50 [11]: < 0.2 µM
- EC50 [12]: < 0.1 µM
- EC50 [13]: < 0.1 µM
- EC50 [14]: < 0.1 µM
- EC50 [15]: < 0.1 µM
- EC50 [16]: < 0.1 µM
- EC50 [17]: < 0.2 µM
- EGFR phosphorylation (Western blot, FIG. 1) [18]: decrease in EGFR phosphorylation
- EC50 [19]: < 0.2 µM
Compound: C=CC(=O)Nc1cccc(-n2c(=O)c(Oc3ccc(F)cc3F)cc3cnc(Nc4cnn(C)c4)nc32)c1 [Compound 2]
